# Measured values as given in patent US20220145303A1, “FRAGILE X MENTAL RETARDATION PROTEIN INTERFERING OLIGONUCLEOTIDES AND METHODS OF USING SAME” (Nogra Pharma Limited, priority 2019, published 2022).
# Columns and labels:
# Assay type in all cases: cell-based, human
# [1] = tested on: DLD-1 cells; assay: Cell death by AnnexinV/PI flow cytometry in DLD-1 cells; details: 24 hours, AS 0.5 nM and 100 nM, FIGS. 3E, 3F
# Experimental: (§1) Cells were transfected with either FMRP antisense oligonucleotide (AS)(final concentration 0.5 nM and 100 nM) or FMRP sense oligonucleotide (S)(final concentration 100 nM). After 24 hours (FIGS. 3E, 3F, 3J and 3K) or 48 hours (FIG. 3H), cells were collected, washed two times in Annexin V (AV) buffer, stained with FITC-AnnexinV (final dilution 1:100; Immunotools, Friesoythe, Germany) according to the manufacturer's instructions, and incubated with […] of propidium iodide (PI) for 30 min at 4° C. Cells were also transfected with either FMRP sense oligonucleotide or FMRP AS oligonucleotide (final concentration 100 nM) for 36 hours and analyzed for activated caspase 3 and caspase 8. As positive and negative controls, cells were treated, respectively, with staurosporin (final concentration 1 μM, Sigma-Aldrich Milan, Italy) or Q-VD-OPh (a pan-caspase inhibitor; final concentration 1 μM) (R&D Systems, Inc, Minneapolis, Minn.). Additionally, 36 hours (FIGS. 4F and 4G) or 48 hours post-transfection (FIGS. 4D and 4E), cells were pulsed with […] bromodeoxyuridine for 60 minutes, fixed in 70% cold ethanol, and stored at −20° C. for at least 3 hours. […] Fluorescence was measured using Gallios Flow Cytometer (Beckman Coulter, Life Sciences, Pasadena, Calif., USA) and analyzed using Kaluza software (Beckman Coulter). […]
# [2] = tested on: HCEC-1ct cells; assay: Cell death by AnnexinV/PI flow cytometry in HCEC-1ct cells; details: 24 hours, AS 0.5 nM and 100 nM, FIGS. 3J, 3K
# Experimental: as §1
# [3] = tested on: HCT-116 cells; assay: Cell migration (pseudo-wound closure) with Ibidi culture insert; details: HCT-116, AS 0.5 nM, T24 and T48, vs untreated or sense, FIGS. 8A, 8B
# Experimental: (§2) To investigate the role of FMRP in tumor cell migration and invasion, HCT-116 cells were seeded in each side of an Ibidi® culture insert and grown to confluence then left untreated (U) or transfected with sense FMRP oligonucleotide (S) (final concentration 0.5 nM) or antisense FMRP oligonucleotide (AS) (final concentration 0.5 nM). Additionally, HCT-116 cells were seeded in Transwell® inserts precoated with Matrigel®, and either left untreated (U) or transfected with sense oligonucleotide (S) (final concentration 100 nM) or antisense FMRP oligonucleotide (AS) (final concentration 0.5 nM) for 48 hours.
# To determine whether MCC regulation of the E-cadherin/β-catenin complex is also required for the observed inhibition of colorectal cell line migration and invasion (e.g., FIGS. 8A and 8B), HCT-116 cells were seeded in each side of an Ibidi® culture insert and grown to confluence then left untreated (U) or transfected with sense oligonucleotide (S) (final concentration 0.5 nM) or antisense oligonucleotide (AS) (final concentration 0.5 nM) and/or siRNA Ctrl or siRNA MCC.
# [4] = tested on: caspase 8; assay: Activated caspase 8 by flow cytometry in CRC cells; details: oligonucleotide 100 nM 36 hours, FIGS. 4A, 4B
# Experimental: as §1
# [5] = tested on: HCT-116 cells; assay: Invasion across Matrigel-coated Transwell inserts; details: HCT-116, AS 0.5 nM, 48 hours, vs untreated or sense, FIGS. 8C, 8D
# Experimental: as §2
# [6] = tested on: FMRP; assay: FMRP knockdown: Western blot of FMRP after transfection with FMRP antisense or sense oligonucleotide; details: 48 hours, AS 0.5-100 nM, S 100 nM
# Experimental: Total proteins were extracted from mouse colonic tissues, and lysed on ice in buffer containing 10 mM HEPES [pH 7.9], 10 mM KCl, 0.1 mM EthyleneDiamineTetraacetic Acid (EDTA), 0.2 mM Ethylene Glycol-bis (β-aminoethyl ether)-N,N,N′,N′-Tetraacetic Acid (EGTA) and 0.5% Nonidet P40 supplemented with 1 mM dithiothreitol (DTT), […], […], 1 mM phenylmethylsulfonyl fluoride (PMSF), 1 mM Na3VO4, and 1 mM NaF. Lysates were clarified by centrifugation and separated on sodium dodecyl sulphate (SDS)-polyacrylamide gel electrophoresis. Blots were incubated with antibodies against: FMRP (Cell Signaling, Danvers, Mass.), followed by a secondary antibody conjugated to horseradish peroxidase (Dako, Milan, Italy). After analysis, each blot was stripped and incubated with a mouse-anti-human monoclonal β-actin antibody (Sigma-Aldrich) to ascertain equivalent loading of the lanes.
# Human CRC cell lines, DLD-1 and HCT-116, were obtained from the American Type Culture Collection (ATCC, Manassas, Va.) and cultured in RPMI 1640 (DLD-1) and McCoy's 5A (HCT-116) medium, respectively. All media were supplemented with 10% fetal bovine serum, 1% penicillin/streptomycin (both from Lonza, Verviers, Belgium). The normal human colon epithelial cell line (HCEC-1ct) was obtained from EVERCYTE GmbH (Vienna, Austria) and cultured in ColoUp® medium (EVERCYTE GmbH). Cells were maintained in a 37° C., 5% CO2, fully humidified incubator. Cell line lysates were prepared and analyzed by SDS-polyacrylamide gel electrophoresis/immunoblot using methods as previously described in Example 2. For immunofluorescent staining, cell lines were fixed with 3.7% formaldehyde for 10 minutes at 4° C., permeabilized with 0.1% Triton for 10 minutes at room temperature and blocked (1% bovine serum albumin, Tween 0.1%, glycine 2%) for 1 hour at room temperature. Fixed and blocked cells were incubated with anti-FMRP monoclonal antibody (1:500, Cell Signaling, Danvers, Mass.) overnight at 4° C. After washing with PBS, secondary antibody goat anti-rabbit Alexa 488 (1:2000, A11008; Invitrogen) was applied for 1 hour at room temperature. Slides were washed with PBS, mounted using Prolong Gold® anti-fade reagent with 4′,6-diamidino-2-phenylindole (P36931; Invitrogen) and analyzed by a Leica DMI4000 B microscope with Leica application suite software (V4.6.2).
# Phosphorothioate single-stranded antisense oligonucleotides complementary to human FMRP [5′-[…]-3′ (SEQ ID NO: 6)] and single-stranded sense oligonucleotides [5′-[…]-3′ (SEQ ID NO: 15)] were synthesized. CRC cell lines and HCEC-1ct cells were transfected with either FMRP antisense (AS)(final concentration 0.5-100 nM) or FMRP sense oligonucleotide (S) (final concentration100 nM) for 24 and 48 hours, using Opti-MEM medium and lipofectamine 3000 reagent (Thermo Fisher Scientific, Waltham, Mass., USA) according to the manufacturer's instructions.
substance,measurement,setting,value
"5′-TCCACCACCAGCTCCTCCAT-3′ (all phosphorothioate, sugars by position and methylation of C not given here) [FMRP antisense oligonucleotide, Phosphorothioate single-stranded antisense oligonucleotides complementary to human FMRP]",number of AnnexinV+ or AnnexinV+ PI+ cells,[1],increased number of AnnexinV^+ or AnnexinV^+ Pt cells
same,number of AnnexinV+ or AnnexinV+ PI+ cells,[2],neither HCT-116 cells nor HCRC-1ct cells treated with FMRP antisense oligonucleotide exhibited an increased number
same,percentage of cell-covered area (pseudo-wound),[3],significantly reduced the percentage of cells covering a pseudo-“wound”
same,percentage of activated caspase 8-positive cells,[4],did not alter
same,number of cells migrating across Matrigel-coated Transwell insert,[5],significantly reduced migration
same,FMRP expression,"[6]; DLD-1 cells, FIG. 3D",significantly inhibited FMRP expression
same,FMRP expression,"[6]; HCEC-1ct cells, FIG. 3I",significantly inhibited FMRP expression
same,FMRP expression,"[6]; HCT-116 cells, FIG. 3G",significantly inhibited FMRP expression
